What all share (format): cell-based
The target in one assay is T1, human TLR8 (Homo sapiens, UniProt Q9NR97).
T1 construct: host or cells: HEK-Blue cells (HEK293-derived reporter line)
T1 sequence (Q9NR97 27-1041): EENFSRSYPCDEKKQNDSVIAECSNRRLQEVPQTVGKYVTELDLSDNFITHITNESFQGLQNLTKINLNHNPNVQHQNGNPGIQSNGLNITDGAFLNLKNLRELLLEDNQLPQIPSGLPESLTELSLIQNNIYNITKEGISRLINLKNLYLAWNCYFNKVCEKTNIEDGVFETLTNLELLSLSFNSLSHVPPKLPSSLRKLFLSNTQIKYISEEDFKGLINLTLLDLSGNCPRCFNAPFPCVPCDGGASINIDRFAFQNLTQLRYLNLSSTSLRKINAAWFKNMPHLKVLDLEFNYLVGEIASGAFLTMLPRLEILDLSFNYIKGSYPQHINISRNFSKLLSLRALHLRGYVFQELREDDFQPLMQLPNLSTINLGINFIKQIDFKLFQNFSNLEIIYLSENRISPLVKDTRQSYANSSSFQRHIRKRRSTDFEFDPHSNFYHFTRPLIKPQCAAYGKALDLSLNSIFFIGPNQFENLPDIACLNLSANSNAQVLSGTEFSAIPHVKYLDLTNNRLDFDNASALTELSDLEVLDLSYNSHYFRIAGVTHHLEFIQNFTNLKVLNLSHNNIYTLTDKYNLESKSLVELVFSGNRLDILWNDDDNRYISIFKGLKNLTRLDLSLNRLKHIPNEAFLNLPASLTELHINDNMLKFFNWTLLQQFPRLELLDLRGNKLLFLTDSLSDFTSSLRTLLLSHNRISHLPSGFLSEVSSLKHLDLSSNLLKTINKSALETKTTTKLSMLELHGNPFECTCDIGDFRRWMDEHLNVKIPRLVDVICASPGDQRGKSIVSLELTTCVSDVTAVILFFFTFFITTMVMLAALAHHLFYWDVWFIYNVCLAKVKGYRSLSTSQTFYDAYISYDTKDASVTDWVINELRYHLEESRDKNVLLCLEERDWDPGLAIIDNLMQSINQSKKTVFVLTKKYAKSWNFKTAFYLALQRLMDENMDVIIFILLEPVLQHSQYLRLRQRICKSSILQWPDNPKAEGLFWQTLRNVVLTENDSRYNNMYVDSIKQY
The assay is described as follows: TLR8 inhibition reporter assay (HEK-Blue cells, secreted embryonic alkaline phosphatase reporter). To be noted: HEK-Blue cells overexpressing human TLR8, stimulated with R848 15.9 μM; read-out: TLR 8 IC50. In short, it runs like this:
(§1)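 Agonist-driven SEAP output was measured in HEK-Blue reporter cells carrying human TLR7 (gardiquimod 7.5 μM), TLR8 (R848 15.9 μM) or TLR9 (ODN2006 5 nM). Compounds at 0.05 nM–50 μM final were added 30 min before stimulation at room temperature. After 22 h at 37 °C, percent inhibition was taken against agonist/DMSO wells and a reference inhibitor.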
A general note: A reporter such as luciferase makes a cellular process visible.

A further assay concerns the target T2, human TLR7 (Homo sapiens, UniProt Q9NYK1).
T2 construct: host or cells: HEK-Blue cells (HEK293-derived reporter line)
T2 sequence (Q9NYK1 27-1049): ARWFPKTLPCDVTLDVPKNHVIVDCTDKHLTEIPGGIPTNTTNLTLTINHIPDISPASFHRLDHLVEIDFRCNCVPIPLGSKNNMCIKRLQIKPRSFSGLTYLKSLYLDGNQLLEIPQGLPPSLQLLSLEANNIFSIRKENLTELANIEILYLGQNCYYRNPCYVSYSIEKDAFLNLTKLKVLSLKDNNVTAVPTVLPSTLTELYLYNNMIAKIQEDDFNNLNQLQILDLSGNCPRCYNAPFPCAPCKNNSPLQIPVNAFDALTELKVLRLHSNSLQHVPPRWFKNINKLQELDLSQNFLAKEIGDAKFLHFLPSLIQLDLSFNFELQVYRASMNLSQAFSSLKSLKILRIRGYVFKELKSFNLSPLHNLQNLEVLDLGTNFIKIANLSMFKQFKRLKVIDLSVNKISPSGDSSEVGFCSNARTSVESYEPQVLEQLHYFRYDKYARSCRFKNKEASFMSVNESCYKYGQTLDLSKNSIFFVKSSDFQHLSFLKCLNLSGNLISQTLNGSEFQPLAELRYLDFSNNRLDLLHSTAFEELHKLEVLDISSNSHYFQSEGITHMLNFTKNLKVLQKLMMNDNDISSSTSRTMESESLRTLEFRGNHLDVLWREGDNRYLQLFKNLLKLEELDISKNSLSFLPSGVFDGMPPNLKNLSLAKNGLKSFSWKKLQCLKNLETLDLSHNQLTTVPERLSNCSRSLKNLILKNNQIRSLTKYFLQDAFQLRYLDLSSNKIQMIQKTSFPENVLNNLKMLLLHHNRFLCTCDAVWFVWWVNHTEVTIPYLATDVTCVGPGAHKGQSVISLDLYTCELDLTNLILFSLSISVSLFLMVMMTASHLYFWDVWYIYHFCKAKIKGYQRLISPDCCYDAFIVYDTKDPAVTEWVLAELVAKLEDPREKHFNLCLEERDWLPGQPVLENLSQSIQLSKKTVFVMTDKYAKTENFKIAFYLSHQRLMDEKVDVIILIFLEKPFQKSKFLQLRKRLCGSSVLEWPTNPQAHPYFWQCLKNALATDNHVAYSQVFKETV
The assay is described as follows: TLR7 inhibition reporter assay (HEK-Blue cells, secreted embryonic alkaline phosphatase reporter). To be noted: HEK-Blue cells overexpressing human TLR7, stimulated with gardiquimod 7.5 μM; read-out: TLR 7 IC50. In short, it runs like this:
as §1

The target in another assay is T3, human TLR9 (Homo sapiens, UniProt Q9NR96).
T3 construct: host or cells: HEK-Blue cells (HEK293-derived reporter line)
T3 sequence (Q9NR96 26-1032): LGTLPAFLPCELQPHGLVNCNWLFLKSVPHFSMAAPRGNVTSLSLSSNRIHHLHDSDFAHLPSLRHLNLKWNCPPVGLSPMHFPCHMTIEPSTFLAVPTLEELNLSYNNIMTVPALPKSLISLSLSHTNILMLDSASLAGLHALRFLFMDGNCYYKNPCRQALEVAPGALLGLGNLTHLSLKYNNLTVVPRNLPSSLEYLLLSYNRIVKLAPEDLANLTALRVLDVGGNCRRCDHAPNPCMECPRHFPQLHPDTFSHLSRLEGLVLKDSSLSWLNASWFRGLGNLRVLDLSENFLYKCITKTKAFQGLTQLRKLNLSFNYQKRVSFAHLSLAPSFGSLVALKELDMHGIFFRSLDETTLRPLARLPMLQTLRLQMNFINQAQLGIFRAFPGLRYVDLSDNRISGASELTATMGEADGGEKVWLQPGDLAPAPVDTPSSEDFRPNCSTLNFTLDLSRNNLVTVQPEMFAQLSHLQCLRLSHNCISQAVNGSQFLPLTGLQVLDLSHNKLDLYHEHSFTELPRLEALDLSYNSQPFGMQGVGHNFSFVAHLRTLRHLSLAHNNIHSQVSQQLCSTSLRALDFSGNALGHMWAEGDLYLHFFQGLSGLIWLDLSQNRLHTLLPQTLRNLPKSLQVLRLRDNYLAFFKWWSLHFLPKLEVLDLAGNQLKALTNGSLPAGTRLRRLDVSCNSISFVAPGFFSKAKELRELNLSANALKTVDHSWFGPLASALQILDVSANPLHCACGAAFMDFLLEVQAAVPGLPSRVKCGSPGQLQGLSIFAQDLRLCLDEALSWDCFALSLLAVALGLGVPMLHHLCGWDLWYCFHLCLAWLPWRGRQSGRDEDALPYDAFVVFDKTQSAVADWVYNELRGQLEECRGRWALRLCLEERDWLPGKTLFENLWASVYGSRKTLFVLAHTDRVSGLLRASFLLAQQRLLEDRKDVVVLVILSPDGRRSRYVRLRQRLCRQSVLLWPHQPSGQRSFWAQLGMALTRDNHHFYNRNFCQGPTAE
The assay is described as follows: TLR9 inhibition reporter assay (HEK-Blue cells, secreted embryonic alkaline phosphatase reporter). In short, it runs like this:
as §1

Where [1] appears, read: HEK-Blue cells overexpressing human TLR9, stimulated with ODN2006 5 nM, read-out: TLR 9 IC50.
[2] abbreviates: HEK-Blue human TLR9 reporter cells.
Where [3] appears, read: HEK-Blue cells overexpressing human TLR9, stimulated with ODN2006 5 nM, 22 hour incubation, reporter readout.

Where two headings read alike, the source gives them in different places.

Take `Cn1c(-c2ccc(S(C)(=O)=O)cc2)nc2ccc(C3CCN(C4CC5CCC(C4)N5C4CCC4)CC3)c(F)c21` (single isomer, unassigned) [Example 271, 6-(1-(8-cyclobutyl-8-azabicyclo[3.2.1]octan-3-yl)piperidin-4-yl)-7-fluoro-1-methyl-2-(4-(methylsulfonyl)phenyl)-1H-benzo[d]imidazole]: the IC50 at human TLR8 is over 50000 nM; on human TLR7, 31600 nM; at human TLR9, 410 nM; at human TLR9 (setting [1]), 407 nM.
For the compound `CS(=O)(=O)c1ccc(-c2nc3c(F)cc(C4CCN(C5CC6CCC(C5)N6C5CCOCC5)CC4)cc3n2C2CC2)cc1` (centres unmarked) [Example 328, 1-cyclopropyl-4-fluoro-2-(4-(methylsulfonyl)phenyl)-6-(1-(8-(tetrahydro-2H-pyran-4-yl)-8-azabicyclo[3.2.1]octan-3-yl)piperidin-4-yl)-1H-benzo[d]imidazole], the IC50 was over 50000 nM on human TLR8, 2300 nM at human TLR7, 12 nM at human TLR9 (setting [1]) and 12 nM against human TLR9 (setting [2]).
Turning to `Cc1cc(-c2ccc(CN3CCC(N4CCCC4)CC3)cc2)cc2c1nc(-c1ccc(S(C)(=O)=O)cc1)n2C1CC1` [Example 372, 1-cyclopropyl-4-methyl-2-(4-(methylsulfonyl)phenyl)-6-(4-((4-(pyrrolidin-1-yl)piperidin-1-yl)methyl)phenyl)-1H-benzo[d]imidazole], the IC50 was found to be 5100 nM on human TLR8, 1400 nM at human TLR7 and 54 nM on human TLR9 (setting [3]).
Consider `Cn1c(-c2ccc(S(C)(=O)=O)cc2)nc2c(F)cc(C3CCN(C4CC5CCC(C4)N5C4CCOCC4)CC3)cc21` (single isomer, unassigned) [Example 289, 4-fluoro-1-methyl-2-(4-(methylsulfonyl)phenyl)-6-(1-(8-(tetrahydro-2H-pyran-4-yl)-8-azabicyclo[3.2.1]octan-3-yl)piperidin-4-yl)-1H-benzo[d]imidazole], for which the IC50 is over 50000 nM at human TLR8, 3200 nM at human TLR7, 29 nM at human TLR9 (setting [1]) and 29 nM against human TLR9 (setting [2]).
For the compound `COCCN1C2CCC1CC(N1CCC(c3ccc4nc(-c5ccc(S(C)(=O)=O)cc5)n(C)c4c3F)CC1)C2` (single isomer, unassigned) [Example 276, 7-fluoro-6-(1-(8-(2-methoxyethyl)-8-azabicyclo[3.2.1]octan-3-yl)piperidin-4-yl)-1-methyl-2-(4-(methylsulfonyl)phenyl)-1H-benzo[d]imidazole], the IC50 at human TLR8 was over 50000 nM; on human TLR7, 1500 nM; against human TLR9, 170 nM; on human TLR9 (setting [1]) it was 167 nM.
As to `Cc1cc(C2CCN(C3CC4CCC(C3)N4C3CCOCC3)CC2)cc2c1nc(-c1ccc(S(C)(=O)=O)cc1)n2C` (single isomer, unassigned) [Example 160, 1,4-dimethyl-2-(4-(methylsulfonyl)phenyl)-6-(1-(8-(tetrahydro-2H-pyran-4-yl)-8-azabicyclo[3.2.1]octan-3-yl)piperidin-4-yl)-1H-benzo[d]imidazole], the IC50 was over 25000 nM at human TLR8, 23500 nM at human TLR7, 52 nM against human TLR9 and 52 nM at human TLR9 (setting [1]).
For the compound `Cc1cc(-c2ccc(CN3CCC(N(C)C)CC3)cc2)cc2c1nc(-c1ccc(S(C)(=O)=O)cc1)n2C` [Example 385, 1-(4-(1,4-dimethyl-2-(4-(methylsulfonyl)phenyl)-1H-benzo[d]imidazol-6-yl)benzyl)-N,N-dimethylpiperidin-4-amine], the IC50 came out at 5600 nM at human TLR8, 1200 nM on human TLR7, 180 nM against human TLR9 (setting [3]) and 179 nM on human TLR9 (setting [1]).
In the same order, the values of `COc1ccc(-c2nc3ccc(C4CCN(C5CCN(C(C)C)CC5)CC4)cc3n2CC(F)F)cc1OC` [Example 4, 1-(2,2-difluoroethyl)-2-(3,4-dimethoxyphenyl)-6-(1′-isopropyl-[1,4′-bipiperidin]-4-yl)-1H-benzo[d]imidazole] are over 50000 nM, 4700 nM, 250 nM and 253 nM.
Take `Cc1cc(C2CCN(C3CCN(C4CCC4)CC3)CC2)cc2c1nc(-c1ccc(S(C)(=O)=O)c(F)c1)n2C` [Example 337, 6-(1′-cyclobutyl-[1,4′-bipiperidin]-4-yl)-2-(3-fluoro-4-(methylsulfonyl)phenyl)-1,4-dimethyl-1H-benzo[d]imidazole]: the IC50 at human TLR8 is over 50000 nM; at human TLR7, 1200 nM; at human TLR9 (setting [1]) it was 53 nM; against human TLR9 (setting [2]), 53 nM.

As a reminder, the IC50 is the point on the concentration scale where inhibition reaches its midpoint.
